Assay results taken from PubChem BioAssay AID720495 (Broad Institute, 2013).
Records with an inconclusive call do not appear. Calls of active or inactive are those of the source. The rule behind the calls is not given here.

Each compound was assayed against Protein AF-9 (Homo sapiens) (UniProt P42568) (assay: inhibitors of AF4-AF9 protein interaction, dose response, biochemical, cherry-picked samples, plate reader (AID 720495)). Settings: biochemical protein-protein interaction assay.
Sequence of Protein AF-9 (Homo sapiens) (P42568 whole entry, looked up): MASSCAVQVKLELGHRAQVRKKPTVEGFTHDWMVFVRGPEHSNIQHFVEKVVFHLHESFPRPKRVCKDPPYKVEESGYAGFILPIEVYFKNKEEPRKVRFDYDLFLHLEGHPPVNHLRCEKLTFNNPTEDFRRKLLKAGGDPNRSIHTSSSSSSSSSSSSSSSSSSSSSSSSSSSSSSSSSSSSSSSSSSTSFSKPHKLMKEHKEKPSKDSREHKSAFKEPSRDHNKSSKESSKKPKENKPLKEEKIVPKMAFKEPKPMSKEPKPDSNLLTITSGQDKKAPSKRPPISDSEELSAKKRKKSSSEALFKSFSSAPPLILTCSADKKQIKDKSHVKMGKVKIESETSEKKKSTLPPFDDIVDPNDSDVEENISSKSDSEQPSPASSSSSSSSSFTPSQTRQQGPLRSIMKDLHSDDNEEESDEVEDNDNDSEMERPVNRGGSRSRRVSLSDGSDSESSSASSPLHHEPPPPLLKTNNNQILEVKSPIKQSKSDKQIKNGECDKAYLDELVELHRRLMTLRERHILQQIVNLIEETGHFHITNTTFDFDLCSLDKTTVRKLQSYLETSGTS

| SMILES | AC50 |
| --- | --- |
| O=C1C(Cl)=CC(=Nc2ccc(O)cc2)C=C1Cl | 11400 nM |
| Oc1cc(NCCN2CCOCC2)cc2cccnc12 | 7860 nM |
| CC1NC(=O)NC1CCCCCC(=O)Nc1ccc(F)c(Cl)c1 (stereo not given) | < 80 nM |
| CN(C)CCNC(=O)c1cccc(-c2cnc3c(NC=O)cc(/C=C/c4ccccc4)cn23)c1 | 523 nM |
| CC1NC(=O)NC1CCCCCC(=O)Nc1ccc(F)cc1 (stereo not given) | < 80 nM |
| O=C1C(NS(=O)(=O)c2ccc(Cl)cc2)=C(N2CCCCC2)C(=O)c2ccccc21 | < 80 nM |

Same assay, conditions: biochemical protein-protein interaction assay, at 10 µM (top of the series)

| SMILES | activity change, negative = inhibition |
| --- | --- |
| C#CCOCCOCCOCCNc1nc(N2CCN(C(=O)[C@H](CCCN=C(N)N)n3cc(C(N)[C@@H](C)CC)nn3)CC2)nc(N2CCN(C(=O)[C@H](CCCCN)n3cc([C@@H](N)CC(N)=O)nn3)CC2)n1 (stereo not given in full) | inactive |
| Cc1cc(N=Nc2ccc(Cl)cc2)cc(CN2CCCC2)c1O | inactive |
| CN1CCN(c2ccc(S(=O)(=O)N3CCCCC3)cc2NC(=O)/C=C/c2ccc(Cl)c([N+](=O)[O-])c2)CC1 | inactive |
| Oc1ccccc1C=NCCN1CCN(CCN=Cc2ccccc2O)C1c1ccccc1O (stereo not given) | inactive |
| C[C@@H]1CCCCO[C@H](CN(C)Cc2ccc(C(F)(F)F)cc2)[C@H](C)CN([C@H](C)CO)C(=O)c2cc(N(C)C)ccc2O1 | inactive |
| C/C(=N\Nc1nc2ccccc2[nH]1)c1ccc2c(c1)OCO2 | inactive |
| COc1cccc(OCC(O)CN2CCC(CN3C(=O)c4cccc5cccc(c45)C3=O)CC2)c1 (stereo not given) | inactive |
| c1ccc2c(c1)nc(Nc1ccc(N3CCCCC3)cc1)c1nncn12 | inactive |
| Cc1ccc2ccc(C(Nc3cccc(C(F)(F)F)c3)c3cccnc3)c(O)c2n1 (stereo not given) | inactive |
